A value given as a limit tells only on which side of the number the result lay.

The values that follow come from US20240327417A1, “HETEROCYCLIC COMPOUNDS” (BeiGene Switzerland GmbH, priority 2021, published 2024).

Experiment [1] has as its target T1, Full length DGKζ (in-house protein M1-V929) (Homo sapiens, UniProt Q13574).
T1 construct: His (N); TEV cleavage site (N); made in house; host or cells: Sf9 insect cells (baculovirus, Bac-to-Bac)
The experiment in a line: Biochemical DGK IC50 assay (ADP-Glo, lipid micelle substrate), DGKζ. The conditions noted are these: 0.5 nM enzyme, 140 μM ATP, 80 μM DAG, 1 hour preincubation, 1 hour reaction, room temperature, read-out: IC50s for DGKζ. The protocol: (§1) Enzymatic reactions of DGKζ, DGKα and DGKδ were performed using ADP-Glo assay with lipid micelle substrate. […] Full length DGKα (D21-10BG, SignalChem) and full length DGKδ (D23-10G, SignalChem) were purchased. Lipid micelle was prepared by dissolving DAG (Sigma, 317505-10MG) and PS (Sigma, P7769-100MG) with chloroform which was firtherly removed by rotary evaporation. The obtained residue was resuspended in buffer containing 25 mM HEPES pH 7.0, 0.5 mM EDTA and 160 mM Octyl β-D glucopyranoside by vigorous mixing and ultrasonic (IID, Scientz).
(§2) The inhibition activities testing for the compound disclosed herein were carried out at room temperature in assay buffer containing 50 mM HEPES, 10 mM MgCl2, 0.01% BSA, 0.1 mM Na3VO4, 0.005% Tween-20 and 0.01 mM CaCl2. Compounds in DMSO were dispensed into wells of a black 384 well plate (Corning 4514) using D300e digital dispenser (Tecan). The ranges of compounds final concentration were 1.55˜10000 nM or 23.3˜150000 nM. 3 μL 2× enzyme solution was added to wells. […] After 1 hour reaction, 5 μL ADP-Glo reagent (Promga V9101) was added and incubated for 40 minutes. 10 μL Kinase Detection reagent was added and incubated for 30 minutes. Luminescence was measured on a microplate reader (PHERAstar FSX, BMG labtech). The IC50s are calculated based on inhibition of enzyme activity in the presence of increasing concentrations of compounds.
Human His-TEV-DGK-zeta-pFastBac1 and human baculovirus samples was generated using the Bac-to-Bac baculovirus expression system (Invitrogen) according to the manufacturer's protocol. The DNA used for expression of DGK-zeta, have SEQ ID Nos: 1. Baculovirus amplification was achieved using infected SF9 cells at 1:2000 virus/cells ratios, and grown for 96 hours at 27° C. post-transfected.
The expression scaled up for each protein was carried out in the […] from CORNING. 4 L of 3×10^6 cells/mL Sf9 cells (Expression System, Invitrogen) grown in SF900™ II SFM insect medium (Expression System) was infected with virus stock at 1:200 virus/cells ratio, and grown for 48 hours at 27° C. post-transfection. The infected cell culture was harvested by centrifugation at 6000 rpm for 15 min 4° C. in a SORVALL LYNX6000 centrifuge. The cell pellets were stored at −80° C.
Full length human DGKζ produced as described above, was purified from Sf9 baculovirus-infected insect cell paste. The cells were lysed using sonication method, and the lysates were clarified by centrifugation.
On the technique in general: In ADP-Glo the light output rises with the ADP produced.

Experiment [2] addresses T2, Full length DGKα (D21-10BG, SignalChem) (Homo sapiens, UniProt P23743).
T2 construct: Full length DGKα (D21-10BG, SignalChem); purchased SignalChem D21-10BG
The experiment in a line: Biochemical DGK IC50 assay (ADP-Glo, lipid micelle substrate), DGKα. The settings on record: 7.5 nM enzyme, 140 μM ATP, 80 μM DAG, 1 hour preincubation, 1 hour reaction, room temperature, read-out: IC50s for DGKα. As for the experimental part:
as §1, §2

T2 sequence (P23743 whole entry): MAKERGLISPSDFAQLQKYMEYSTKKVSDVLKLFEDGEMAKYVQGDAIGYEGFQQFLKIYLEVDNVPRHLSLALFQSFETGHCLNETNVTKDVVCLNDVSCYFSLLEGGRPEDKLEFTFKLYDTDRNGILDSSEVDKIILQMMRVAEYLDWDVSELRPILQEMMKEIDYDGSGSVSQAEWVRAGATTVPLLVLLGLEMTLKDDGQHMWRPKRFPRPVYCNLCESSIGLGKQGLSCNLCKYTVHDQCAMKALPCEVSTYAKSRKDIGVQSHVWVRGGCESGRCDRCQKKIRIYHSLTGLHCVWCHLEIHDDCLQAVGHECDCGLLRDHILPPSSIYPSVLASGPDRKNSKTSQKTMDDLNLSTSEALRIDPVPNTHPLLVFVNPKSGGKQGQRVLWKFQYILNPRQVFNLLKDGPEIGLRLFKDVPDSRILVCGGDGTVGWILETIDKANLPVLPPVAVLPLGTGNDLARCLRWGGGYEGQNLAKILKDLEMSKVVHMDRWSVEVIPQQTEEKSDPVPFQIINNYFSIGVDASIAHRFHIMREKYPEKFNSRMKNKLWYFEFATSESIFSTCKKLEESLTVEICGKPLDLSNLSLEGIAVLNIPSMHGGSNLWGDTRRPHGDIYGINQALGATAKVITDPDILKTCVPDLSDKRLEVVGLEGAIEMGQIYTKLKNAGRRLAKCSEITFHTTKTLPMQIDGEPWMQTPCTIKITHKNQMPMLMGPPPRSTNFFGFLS
T1 sequence (Q13574 1-929 isoform Q13574-4): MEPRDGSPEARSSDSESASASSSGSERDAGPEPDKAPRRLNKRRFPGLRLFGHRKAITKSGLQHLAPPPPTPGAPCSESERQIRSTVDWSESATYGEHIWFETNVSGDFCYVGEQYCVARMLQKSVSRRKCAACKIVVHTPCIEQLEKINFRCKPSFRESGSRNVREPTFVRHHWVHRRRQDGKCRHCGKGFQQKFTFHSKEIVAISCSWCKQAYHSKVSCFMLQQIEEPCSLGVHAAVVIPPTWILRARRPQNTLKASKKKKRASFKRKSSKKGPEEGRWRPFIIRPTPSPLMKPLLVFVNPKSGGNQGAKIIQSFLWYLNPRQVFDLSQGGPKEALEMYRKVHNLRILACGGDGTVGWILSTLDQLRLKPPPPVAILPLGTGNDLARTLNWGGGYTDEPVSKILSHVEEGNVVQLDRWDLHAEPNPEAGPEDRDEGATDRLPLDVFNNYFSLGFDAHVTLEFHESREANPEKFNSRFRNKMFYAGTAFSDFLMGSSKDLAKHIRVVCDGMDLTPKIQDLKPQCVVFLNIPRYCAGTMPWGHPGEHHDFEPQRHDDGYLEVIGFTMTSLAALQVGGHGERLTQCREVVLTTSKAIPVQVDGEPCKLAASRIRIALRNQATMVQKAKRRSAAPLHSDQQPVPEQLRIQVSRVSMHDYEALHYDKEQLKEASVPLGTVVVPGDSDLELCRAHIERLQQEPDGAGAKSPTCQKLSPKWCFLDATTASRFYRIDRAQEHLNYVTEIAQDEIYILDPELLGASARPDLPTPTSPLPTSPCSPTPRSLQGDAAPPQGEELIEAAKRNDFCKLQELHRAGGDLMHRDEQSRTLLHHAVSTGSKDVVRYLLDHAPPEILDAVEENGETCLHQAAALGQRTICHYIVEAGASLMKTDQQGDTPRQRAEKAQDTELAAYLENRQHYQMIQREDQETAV

For `CC(c1ccc2nccnc2c1)N1C[C@H](C)N(c2cc(=O)n(C)n3cc(CC#N)nc23)C[C@H]1C` (mixture of isomers) [Compound A1, 2-(8-((2S,5R)-2,5-dimethyl-4-(1-(quinoxalin-6-yl)ethyl)piperazin-1-yl)-5-methyl-6-oxo-5,6-dihydroimidazo[1,2-b]pyridazin-2-yl)acetonitrile], the IC50 in experiment [1] turned out to be 0.078 µM; in experiment [2] it was 2 µM.
For the compound `CC(c1ccc2c(c1)OC(C)(C)CO2)N1C[C@H](C)N(c2c(F)c(=O)n(C)n3cc(CC#N)nc23)C[C@H]1C` (mixture of isomers) [Compound A26, 2-(8-((2S,5R)-4-(1-(3,3-dimethyl-2,3-dihydrobenzo[b][1,4]dioxin-6-yl)ethyl)-2,5-dimethylpiperazin-1-yl)-7-fluoro-5-methyl-6-oxo-5,6-dihydroimidazo[1,2-b]pyridazin-2-yl)acetonitrile], the IC50 was determined as 0.016 µM in experiment [1] and 3.09 µM in experiment [2].
As to `CC(c1ccc2c(c1)OC(C)(C)CO2)N1C[C@H](C)N(c2c(C#N)c(=O)n(C)n3cc(CC#N)nc23)C[C@H]1C` (mixture of isomers) [Compound A27, 2-(cyanomethyl)-8-((2S,5R)-4-(1-(3,3-dimethyl-2,3-dihydrobenzo[b][1,4]dioxin-6-yl)ethyl)-2,5-dimethylpiperazin-1-yl)-5-methyl-6-oxo-5,6-dihydroimidazo[1,2-b]pyridazine-7-carbonitrile], the IC50 in experiment [1] was determined as 0.01 µM; in experiment [2], 0.858 µM.
`CC(c1ccc2nccnc2c1)N1C[C@H](C)N(c2cc(=O)n(C)n3cc(CC#N)nc23)C[C@H]1C` (single isomer, unassigned) [Compound A1a]: the IC50 in experiment [1] stood at 0.035 µM; in experiment [2] it was 1.27 µM.
Regarding `CC(c1ccc2nccnc2c1)N1C[C@H](C)N(c2cc(=O)n(C)n3cc(CC#N)nc23)C[C@H]1C` (single isomer, unassigned) [Compound A1b], the IC50 in experiment [1] is above 10 µM; in experiment [2], 2.75 µM.
For the compound `Cc1cnc2ccc(C(C)N3C[C@H](C)N(c4cc(=O)n(C)n5cc(CC#N)nc45)C[C@H]3C)cc2n1` (single isomer, unassigned) [Compound A2a], the IC50 in experiment [1] was determined as 7.4 µM; in experiment [2], 26.8 µM.
On the same counts, the results for `Cc1cnc2ccc(C(C)N3C[C@H](C)N(c4cc(=O)n(C)n5cc(CC#N)nc45)C[C@H]3C)cc2n1` (single isomer, unassigned) [Compound A2b] are 0.011 µM and 11.6 µM.
In the case of `CC[C@H]1CN(C(C)c2ccc3nccnc3c2)[C@H](CC)CN1c1cc(=O)n(C)n2cc(COC)nc12` (single isomer, unassigned) [Compound A8a], the IC50 in experiment [1] came to 0.025 µM; in experiment [2], 1.31 µM.
Turning to `CC[C@H]1CN(C(C)c2ccc3nccnc3c2)[C@H](CC)CN1c1cc(=O)n(C)n2cc(COC)nc12` (single isomer, unassigned) [Compound A8b], the IC50 came to 1.33 µM in experiment [1] and 5.08 µM in experiment [2].
In the case of `CC[C@@H]1CN(c2cc(=O)n(C)n3cc(C=NOC)nc23)[C@@H](C)CN1C(C)c1ccc2nccnc2c1` (single isomer, unassigned) [Compound A9a], the results for the IC50 in experiment [1] and in experiment [2] were 3.15 µM and 0.739 µM, respectively.
On to `CC[C@@H]1CN(c2cc(=O)n(C)n3cc(C=NOC)nc23)[C@@H](C)CN1C(C)c1ccc2nccnc2c1` (single isomer, unassigned) [Compound A9b], for which the IC50 in experiment [1] was 0.313 µM; in experiment [2], 0.074 µM.
`CC[C@@H]1CN(c2cc(=O)n(C)n3cc(C=NOC)nc23)[C@@H](C)CN1C(C)c1ccc2nccnc2c1` (single isomer, unassigned) [Compound A9c]: the results for the IC50 in experiment [1] and in experiment [2] were above 10 µM and 2.17 µM, respectively.
For the compound `CC[C@@H]1CN(c2cc(=O)n(C)n3cc(C=NOC)nc23)[C@@H](C)CN1C(C)c1ccc2nccnc2c1` (single isomer, unassigned) [Compound A9d], the values for the IC50 in experiment [1] and in experiment [2] were above 10 µM and 0.211 µM, respectively.
Consider `CC[C@@H]1CN(c2cc(=O)n(C)n3cc(CC#N)nc23)[C@@H](C)CN1C(C)c1ccc2nccnc2c1` (single isomer, unassigned) [Compound A13a], for which the IC50 stood at 0.016 µM in experiment [1] and 0.966 µM in experiment [2].
Take `CC[C@@H]1CN(c2cc(=O)n(C)n3cc(CC#N)nc23)[C@@H](C)CN1C(C)c1ccc2nccnc2c1` (single isomer, unassigned) [Compound A13b]: the IC50 in experiment [1] was determined as 3.61 µM; in experiment [2], 4.18 µM.
In the same order, the values of `CC[C@H]1CN(C(C)c2ccc3nccnc3c2)[C@H](CC)CN1c1cc(=O)n(C)n2cc(CC#N)nc12` (single isomer, unassigned) [Compound A14a] are 0.006 µM and 0.217 µM.
On the same counts, the results for `CC[C@H]1CN(C(C)c2ccc3nccnc3c2)[C@H](CC)CN1c1cc(=O)n(C)n2cc(CC#N)nc12` (single isomer, unassigned) [Compound A14b] are 0.358 µM and 1.42 µM.
For the compound `CC[C@@H]1CN(c2cc(=O)n(C)n3cc(COC)nc23)[C@@H](C)CN1C(C)c1ccc(C(F)(F)F)cc1F` (single isomer, unassigned) [Compound A16a], the values for the IC50 in experiment [1] and in experiment [2] were 1.23 µM and 4.65 µM, respectively.
As to `CC[C@@H]1CN(c2cc(=O)n(C)n3cc(COC)nc23)[C@@H](C)CN1C(C)c1ccc(C(F)(F)F)cc1F` (single isomer, unassigned) [Compound A16b], the results for the IC50 in experiment [1] and in experiment [2] were above 10 µM and 8.46 µM, respectively.
As for `CC[C@@H]1CN(c2cc(=O)n(C)n3cc(CC#N)nc23)[C@@H](C)CN1C(C)c1ccc(C(F)(F)F)cc1F` (single isomer, unassigned) [Compound A17a], the IC50 in experiment [1] came to 0.108 µM; in experiment [2] it was 0.171 µM.
Regarding `CC[C@@H]1CN(c2cc(=O)n(C)n3cc(CC#N)nc23)[C@@H](C)CN1C(C)c1ccc(C(F)(F)F)cc1F` (single isomer, unassigned) [Compound A17b], the IC50 in experiment [1] was determined as 4.72 µM; in experiment [2], 0.823 µM.
On to `CC(c1ccc2c(c1)OC(C)(C)CO2)N1C[C@H](C)N(c2c(F)c(=O)n(C)n3cc(CC#N)nc23)C[C@H]1C` (single isomer, unassigned) [Compound A26a], for which the IC50 was found to be 0.019 µM in experiment [1] and 2.89 µM in experiment [2].
In the same order, the values of `CC(c1ccc2c(c1)OC(C)(C)CO2)N1C[C@H](C)N(c2c(F)c(=O)n(C)n3cc(CC#N)nc23)C[C@H]1C` (single isomer, unassigned) [Compound A26b] are 2.14 µM and 2.11 µM.
On to `CC(c1ccc2c(c1)OC(C)(C)CO2)N1C[C@H](C)N(c2c(C#N)c(=O)n(C)n3cc(CC#N)nc23)C[C@H]1C` (single isomer, unassigned) [Compound A27a], for which the figures for the IC50 in experiment [1] and in experiment [2] were 0.003 µM and 2.25 µM, respectively.
For the compound `CC(c1ccc2c(c1)OC(C)(C)CO2)N1C[C@H](C)N(c2c(C#N)c(=O)n(C)n3cc(CC#N)nc23)C[C@H]1C` (single isomer, unassigned) [Compound A27b], the IC50 is 0.579 µM in experiment [1] and 0.486 µM in experiment [2].
`CC[C@H]1CN(C(C)c2ccc(C3CC3)nc2)[C@H](CC)CN1c1cc(=O)n(C)n2cc(CC#N)nc12` (single isomer, unassigned) [Compound A37a]: the IC50 in experiment [1] amounted to 0.02 µM; in experiment [2], 0.044 µM.
Regarding `CC[C@@H]1CN(c2cc(=O)n(C)n3cc(CC#N)nc23)[C@@H](C)CN1C(C)c1ccc2ncsc2n1` (single isomer, unassigned) [Compound A80a], the IC50 in experiment [1] is 0.044 µM.
In the case of `CC[C@@H]1CN(c2cc(=O)n(C)n3cc(CC#N)nc23)[C@@H](C)CN1C(C)c1ccc2ncsc2n1` (single isomer, unassigned) [Compound A80b], the IC50 in experiment [1] stood at 8.16 µM.
The same measure, in the same setting: the same measure for `CC[C@H]1CN(C(C)c2ccc3ncsc3n2)[C@H](CC)CN1c1c(F)c(=O)n(C)n2cc(CC#N)nc12` (single isomer, unassigned) [Compound A81a]: 1.26 µM; for `CC[C@H]1CN(C(C)c2ccc3ncsc3n2)[C@H](CC)CN1c1c(F)c(=O)n(C)n2cc(CC#N)nc12` (single isomer, unassigned) [Compound A81b]: 0.032 µM.
